The target of experiment [1] is T1, EGFr isolated from solubilised A431 cell membranes (Homo sapiens, UniProt P00533).
T1 construct: EGFr isolated from solubilised A431 cell membranes; endogenous in cells; host or cells: A431 cell membranes (solubilised)
Briefly: Substrate phosphorylation assay, EGFr. It counts as biochemical. As to conditions: 30 minutes, room temperature, ATP and peptide at Km concentrations. Here is the method:
(§1) The substrate phosphorylation assays use baculovirus expressed, recombinant constructs of the intracellular domains of c-erbB-2 and c-erbB-4 that are constitutively active and EGFr isolated from solubilised A431 cell membranes. The method measures the ability of the isolated enzymes to catalyse the transfer of the γ-phosphate from ATP onto tyrosine residues in a biotinylated synthetic peptide (Biotin-[…]. […] The reaction is stopped by the addition of EDTA (final concentration 0.15 mM) and a sample is transferred to a streptavidin-coated 96-well plate. The plate is washed and level of phosphotyrosine on the peptide is determined using a Europium-labelled antiphosphotyrosine antibody and quantified with a time-resolved fluorescence technique.

In experiment [2] the test system is HB4a cell line transfected with ras. Put plainly: Cell proliferation assay, HB4a ras. The class given is cell-based, human. To be noted: 4 days at 37° C., methylene blue staining, general toxicity control, read-out: Cell Proliferation HB4a ras.
Experiment [3] concerns BT474-breast tumour cell line. Put plainly: Cell proliferation assay, BT474. It counts as cell-based, human. As to conditions: same methodology, 4 days. Here is the method:
(§2) The cell proliferation assay uses an immortalised human breast epithelial cell line (HB4a) which has been transformed by over-expression of c-erbB-2. Growth of these cells in low serum is dependent upon the c-erbB-2 tyrosine kinase activity. The specificity of the effect of the test compounds on tyrosine kinase dependent growth over general toxicity is assessed by comparison to an HB4a cell line which has been transfected with ras. Cells are plated at 3000/ well in 96-well plates in 0.1 ml medium and allowed to attach overnight. test compound is added in 0.1 ml medium, with a final concentration of 0.5% DMSO, and the plates incubated for 4 days at 37° C. The cells are then examined microscopically for evidence of morphological detransformation and cell mass is estimated by staining with methylene blue and measuring the absorbance at 620 nm. The results are shown in Table 1 below as the IC50 values in nM. Activity against a range of naturally occurring EGFr or c-erbB-2 over-expressing human tumour cell lines (BT474-breast, HN5-head and neck, N87-gastric and Calu3-lung) is assessed with selected compounds by the same methodology. The results are also shown in Table 1 below as the IC50 values in nM.

The test system of experiment [4] is Calu3-lung tumour cell line. Briefly: Cell proliferation assay, Calu3. The class given is cell-based, human. To be noted: same methodology, 4 days. Here is the method: as §2
In experiment [5] the target is T2, c-erbB-4 (baculovirus expressed, recombinant intracellular domain) (Homo sapiens, UniProt Q15303).
T2 construct: baculovirus expressed, recombinant constructs of the intracellular domains of c-erbB-2 and c-erbB-4; made in house
Put plainly: Substrate phosphorylation assay, c-erbB-4. The class given is biochemical. Here is the method: as §1

In experiment [6] the test system is N87-gastric tumour cell line. Briefly: Cell proliferation assay, N87. As to conditions: same methodology, 4 days. The class given is cell-based, human. Here is the method:
as §2

In experiment [7] the test system is HN5-head and neck tumour cell line. Briefly: Cell proliferation assay, HN5. It counts as cell-based, human. As to conditions: same methodology, 4 days. Here is the method:
as §2

The target of experiment [8] is HB4a cell line transformed by over-expression of c-erbB-2 (Homo sapiens, UniProt P04626). Put plainly: Cell proliferation assay, HB4a erbB-2. The class given is cell-based. To be noted: 4 days at 37° C., methylene blue staining; read-out: Cell Proliferation HB4a erbB-2. Here is the method: as §2, with “The specificity of the effect of the test compounds on tyrosine kinase dependent growth over general toxicity is assessed by comparison to an HB4a cell line which has been transfected with ras.” left out, “The results are shown in Table 1 below as the IC50 values in nM.” left out, “methodology.” for “methodology. The results are also shown in Table 1 below as the IC50 values in nM.”

Experiment [9] addresses T3, c-erbB-2 (baculovirus expressed, recombinant intracellular domain) (Homo sapiens, UniProt P04626).
T3 construct: baculovirus expressed, recombinant constructs of the intracellular domains of c-erbB-2 and c-erbB-4; made in house
Put plainly: Substrate phosphorylation assay, c-erbB-2. The class given is biochemical. As to conditions: read-out: Substrate Phosphorylation erbB-2. Here is the method: as §1

Structures can show the parent of a compound that is named as a salt. Where two headings read alike, the source gives them in different places.

T2 sequence (Q15303 676-1308 limits assumed): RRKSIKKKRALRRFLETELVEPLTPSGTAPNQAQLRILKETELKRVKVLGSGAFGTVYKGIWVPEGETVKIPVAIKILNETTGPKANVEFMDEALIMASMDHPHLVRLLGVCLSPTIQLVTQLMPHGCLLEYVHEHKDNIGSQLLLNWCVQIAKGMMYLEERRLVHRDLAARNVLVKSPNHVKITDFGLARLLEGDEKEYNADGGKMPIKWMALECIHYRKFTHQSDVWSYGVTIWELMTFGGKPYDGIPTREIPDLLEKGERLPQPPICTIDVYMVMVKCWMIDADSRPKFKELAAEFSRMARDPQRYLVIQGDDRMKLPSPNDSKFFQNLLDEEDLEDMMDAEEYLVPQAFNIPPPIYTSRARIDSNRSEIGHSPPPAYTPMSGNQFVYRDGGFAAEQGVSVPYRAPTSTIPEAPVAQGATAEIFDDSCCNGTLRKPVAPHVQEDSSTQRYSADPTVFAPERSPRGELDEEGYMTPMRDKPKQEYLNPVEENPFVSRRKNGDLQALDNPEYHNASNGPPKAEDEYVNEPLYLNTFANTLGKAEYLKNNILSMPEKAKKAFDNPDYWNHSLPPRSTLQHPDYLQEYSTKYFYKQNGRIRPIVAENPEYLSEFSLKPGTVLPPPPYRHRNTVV
T1 sequence (P00533 25-1210): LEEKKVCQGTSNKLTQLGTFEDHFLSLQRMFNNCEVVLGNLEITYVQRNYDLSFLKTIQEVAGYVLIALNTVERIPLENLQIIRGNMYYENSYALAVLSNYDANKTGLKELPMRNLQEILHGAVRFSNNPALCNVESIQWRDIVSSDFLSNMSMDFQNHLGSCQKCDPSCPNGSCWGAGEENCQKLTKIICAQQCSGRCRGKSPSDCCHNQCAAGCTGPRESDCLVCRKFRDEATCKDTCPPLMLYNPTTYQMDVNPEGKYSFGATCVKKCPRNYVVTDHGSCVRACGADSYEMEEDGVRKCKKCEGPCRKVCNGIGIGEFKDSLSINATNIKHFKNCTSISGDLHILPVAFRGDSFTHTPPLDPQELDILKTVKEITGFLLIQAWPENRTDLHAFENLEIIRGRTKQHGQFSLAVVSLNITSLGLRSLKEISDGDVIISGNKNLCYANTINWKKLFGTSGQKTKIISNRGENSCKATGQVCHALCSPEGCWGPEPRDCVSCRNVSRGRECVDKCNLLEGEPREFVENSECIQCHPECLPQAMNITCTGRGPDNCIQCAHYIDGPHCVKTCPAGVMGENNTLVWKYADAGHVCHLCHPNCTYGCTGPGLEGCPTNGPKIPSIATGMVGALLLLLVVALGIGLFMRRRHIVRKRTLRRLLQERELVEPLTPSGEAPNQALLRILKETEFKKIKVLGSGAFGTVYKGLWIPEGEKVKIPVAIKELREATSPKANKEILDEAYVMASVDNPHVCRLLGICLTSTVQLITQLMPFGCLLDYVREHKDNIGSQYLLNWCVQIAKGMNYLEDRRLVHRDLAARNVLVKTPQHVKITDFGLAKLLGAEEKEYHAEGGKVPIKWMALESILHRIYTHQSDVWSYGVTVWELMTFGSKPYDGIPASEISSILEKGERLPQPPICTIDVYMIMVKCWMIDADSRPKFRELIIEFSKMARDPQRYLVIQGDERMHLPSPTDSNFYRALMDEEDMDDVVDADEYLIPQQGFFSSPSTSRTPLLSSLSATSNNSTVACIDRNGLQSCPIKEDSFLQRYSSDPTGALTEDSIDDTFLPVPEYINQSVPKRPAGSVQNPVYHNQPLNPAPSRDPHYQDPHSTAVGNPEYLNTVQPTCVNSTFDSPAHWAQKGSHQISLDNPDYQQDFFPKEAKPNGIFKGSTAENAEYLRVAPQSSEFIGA
T3 sequence (P04626 676-1255 limits assumed): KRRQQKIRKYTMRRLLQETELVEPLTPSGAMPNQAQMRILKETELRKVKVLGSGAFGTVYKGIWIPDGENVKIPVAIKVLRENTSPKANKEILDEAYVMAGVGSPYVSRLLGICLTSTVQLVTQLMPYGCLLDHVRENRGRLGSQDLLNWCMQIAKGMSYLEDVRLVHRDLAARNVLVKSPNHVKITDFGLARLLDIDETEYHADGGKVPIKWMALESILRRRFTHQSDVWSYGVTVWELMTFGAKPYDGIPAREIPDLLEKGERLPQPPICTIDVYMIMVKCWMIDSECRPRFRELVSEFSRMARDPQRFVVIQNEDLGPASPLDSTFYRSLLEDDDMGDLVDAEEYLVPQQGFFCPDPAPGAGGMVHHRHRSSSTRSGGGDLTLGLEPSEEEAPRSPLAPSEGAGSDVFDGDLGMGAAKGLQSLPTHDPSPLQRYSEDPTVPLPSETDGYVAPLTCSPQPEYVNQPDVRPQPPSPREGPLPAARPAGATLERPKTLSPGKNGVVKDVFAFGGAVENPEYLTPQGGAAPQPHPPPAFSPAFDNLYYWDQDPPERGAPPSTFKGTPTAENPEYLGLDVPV
Chain of HB4a cell line transformed by over-expression of c-erbB-2 (P04626 whole entry, change not shown): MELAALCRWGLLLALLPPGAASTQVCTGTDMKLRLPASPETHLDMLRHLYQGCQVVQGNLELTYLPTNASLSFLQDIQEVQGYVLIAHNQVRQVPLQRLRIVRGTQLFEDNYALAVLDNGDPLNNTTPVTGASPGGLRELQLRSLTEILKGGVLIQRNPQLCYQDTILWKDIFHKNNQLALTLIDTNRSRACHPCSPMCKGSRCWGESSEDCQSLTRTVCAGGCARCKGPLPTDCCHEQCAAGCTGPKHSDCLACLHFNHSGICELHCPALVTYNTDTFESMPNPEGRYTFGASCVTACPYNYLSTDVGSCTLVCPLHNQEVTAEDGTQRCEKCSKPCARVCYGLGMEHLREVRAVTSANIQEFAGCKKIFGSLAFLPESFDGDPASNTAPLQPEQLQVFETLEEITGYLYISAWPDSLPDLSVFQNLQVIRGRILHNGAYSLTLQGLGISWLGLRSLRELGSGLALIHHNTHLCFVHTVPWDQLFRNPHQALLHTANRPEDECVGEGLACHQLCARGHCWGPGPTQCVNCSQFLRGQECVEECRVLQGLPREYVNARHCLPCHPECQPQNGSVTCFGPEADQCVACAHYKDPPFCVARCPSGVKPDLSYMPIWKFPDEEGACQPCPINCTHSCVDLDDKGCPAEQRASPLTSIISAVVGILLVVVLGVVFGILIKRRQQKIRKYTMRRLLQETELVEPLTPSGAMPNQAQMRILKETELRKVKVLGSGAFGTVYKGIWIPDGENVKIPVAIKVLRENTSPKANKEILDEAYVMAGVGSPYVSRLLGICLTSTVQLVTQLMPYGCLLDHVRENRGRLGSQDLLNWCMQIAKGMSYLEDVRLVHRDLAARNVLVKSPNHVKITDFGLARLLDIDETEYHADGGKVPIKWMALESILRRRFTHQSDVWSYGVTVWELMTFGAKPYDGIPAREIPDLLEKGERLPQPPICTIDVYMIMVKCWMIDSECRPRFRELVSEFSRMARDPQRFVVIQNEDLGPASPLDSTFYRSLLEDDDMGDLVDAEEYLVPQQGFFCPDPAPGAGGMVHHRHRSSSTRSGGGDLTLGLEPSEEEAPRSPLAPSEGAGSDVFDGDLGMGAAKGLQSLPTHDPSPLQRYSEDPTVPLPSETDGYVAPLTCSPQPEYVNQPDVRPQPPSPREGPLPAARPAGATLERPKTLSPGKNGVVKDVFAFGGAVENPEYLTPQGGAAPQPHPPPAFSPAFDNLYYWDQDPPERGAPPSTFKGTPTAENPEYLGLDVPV

Turning to `Cn1cncc1-c1ccc2ncnc(Nc3ccc(OCc4ccccc4)cc3)c2c1` [Example 6, (4-Benzyloxy-phenyl)-(6-(3-methyl-3H-imidazol-4-yl)-quinazolin-4-yl)-amine], the IC50 in [1] stood at 0.68 µM; in experiment [2] (Homo sapiens, HB4a, 96 h) it was 16 µM; in experiment [3] (Homo sapiens, BT-474, 96 h) it was 1.9 µM; in experiment [4] (Homo sapiens, Calu-3, 96 h) it was 5.8 µM; in experiment [5], 1 µM; in [6] (Homo sapiens, 96 h) it was 1.8 µM. For the same compound, the IC50 in experiment [7] (Homo sapiens, 96 h) stood at 5.2 µM; in experiment [9], 0.11 µM. Also, the GI50 in experiment [8] is 1.6 µM.
Take `NC(=O)[C@@H]1CCCN1Cc1ccc(-c2ccc3ncnc(Nc4ccc(OCc5ccccc5)cc4)c3c2)o1` [Example 11, (S)-1-(5-(4-(4-Benzyloxy-phenylamino)-quinazolin-6-yl)-furan-2-ylmethyl)-pyrrolidine-2-carboxylicacid amide]: the IC50 is 0.16 µM in [1]; 14 µM in [2] (Homo sapiens, HB4a, 96 h); 0.18 µM in [3] (Homo sapiens, BT-474, 96 h); 0.93 µM in experiment [4] (Homo sapiens, Calu-3, 96 h); 0.66 µM in [5]; 0.48 µM in [6] (Homo sapiens, 96 h). Besides, the IC50 in experiment [7] (Homo sapiens, 96 h) was found to be 0.94 µM; in experiment [9] it was 0.036 µM. The GI50 in experiment [8] came to 0.58 µM.
As for `NC(=O)[C@@H]1CCCN1Cc1ccc(-c2ccc3ncnc(Nc4ccc5c(cnn5Cc5ccccc5)c4)c3c2)o1` [Example 18, (S)-1-(5-(4-(1-Benzyl-1H-indazol-5-ylamino)-quinazolin-6-yl)-furan-2-ylmethyl)-pyrrolidine-2-carboxylic acid amide dihydrochloride], the IC50 in experiment [2] (Homo sapiens, HB4a, 96 h) was over 50 µM; in experiment [3] (Homo sapiens, BT-474, 96 h), 0.002 µM; in experiment [4] (Homo sapiens, Calu-3, 96 h) it was 0.36 µM; in experiment [5], 0.034 µM; in experiment [6] (Homo sapiens, 96 h), 0.18 µM; in experiment [7] (Homo sapiens, 96 h), 0.84 µM. The IC50 in experiment [9] was found to be 0.045 µM. For the same compound, in [8], the GI50 is 0.009 µM.
As to `CS(=O)(=O)CCNCc1ccc(-c2ccc3ncnc(Nc4ccc5c(cnn5Cc5ccccc5)c4)c3c2)o1` [Example 19, (1-Benzyl-1H-indazol-5-yl)-(6-(5-((2-methanesulphonyl-ethylamino)-methyl)-furan-2-yl)-quinazolin-4-yl)-amine dihydrochloride], the IC50 in [1] was 0.008 µM; in experiment [2] (Homo sapiens, HB4a, 96 h), 25 µM; in experiment [3] (Homo sapiens, BT-474, 96 h) it was 0.11 µM; in [4] (Homo sapiens, Calu-3, 96 h), 0.92 µM; in [5], 0.24 µM; in [6] (Homo sapiens, 96 h), 0.38 µM. In addition, the IC50 was determined as 0.67 µM in experiment [7] (Homo sapiens, 96 h) and 0.001 µM in [9]. Moreover, the GI50 in experiment [8] was 0.05 µM.
On to `Cc1nnc(-c2ccc3ncnc(Nc4ccc5c(cnn5Cc5cccc(F)c5)c4)c3c2)o1` [Example 22, (1-(3-Fluorobenzyl)-1H-indazol-5-yl)-(6-(5-methyl-1,3,4-oxadiazol-2-yl)-quinazolin-4-yl)-amine hydrochloride], for which the IC50 came to 0.008 µM in experiment [1]; 27 µM in experiment [2] (Homo sapiens, HB4a, 96 h); 0.097 µM in experiment [3] (Homo sapiens, BT-474, 96 h); 2.2 µM in experiment [4] (Homo sapiens, Calu-3, 96 h); 0.6 µM in [6] (Homo sapiens, 96 h); 0.91 µM in [7] (Homo sapiens, 96 h). Also, in experiment [8], the GI50 worked out at 0.43 µM.
Turning to `Cc1nnc(-c2ccc3ncnc(Nc4ccc(OCc5cccc(F)c5)cc4)c3c2)o1` [Example 29, hydrochloride], the IC50 in experiment [1] is 0.023 µM; in experiment [2], over 50 µM; in experiment [3], 0.77 µM; in experiment [4], 23 µM; in experiment [6], 2.4 µM; in experiment [7], 4.4 µM. Besides, in [9] (30 minutes, room temperature, ATP and peptide at Km concentrations), the IC50 amounted to 0.003 µM. Also, the GI50 in experiment [8] is 2.5 µM.
Take `Cc1nnc(-c2ccc3ncnc(Nc4ccc5c(cnn5Cc5ccccc5)c4)c3c2)o1` [Example 41, (1-Benzyl-1H-indazol-5-yl)-(6-(5-methyl-1,3,4-oxadiazol-2-yl)-quinazolin-4-yl)-amine hydrochloride]: the IC50 in [1] was 0.002 µM; in [2] (Homo sapiens, HB4a, 96 h), 35 µM; in [3] (Homo sapiens, BT-474, 96 h), 0.26 µM; in experiment [4] (Homo sapiens, Calu-3, 96 h), 5.3 µM; in [5], 1 µM; in experiment [6] (Homo sapiens, 96 h), 1.4 µM. Also, the IC50 stood at 0.97 µM in experiment [7] (Homo sapiens, 96 h) and 0.01 µM in [9]. Further, the GI50 in [8] amounted to 0.61 µM.
